Measurements reported in patent US20090196930A1, “AEROSOLIZED NITRITE AND NITRIC OXIDE -DONATING COMPOUNDS AND USES THEREOF” (Aires Pharmaceuticals, Inc., priority 2007, published 2009).
Read-outs that look alike come from different tables or passages of the source.

Experiments:
[1] = cited from earlier work
[2] = tested on: phenylepherine-induced contractions of aortic rings; test: Isolated rat aortic ring relaxation
Source text: The isolated rat aortic ring model tests whether a drug solution reduces the phenylepherine-induced pre-contractions of aortic rings. Briefly, rat aorta was excised and cleansed of fat and adhering tissue. Vessels were then cut into individual ring segments (2-3 mm in width) and suspended from a force-displacement transducer in a tissue bath. […] A passive load of 2 grams was applied to all ring segments and maintained at this level throughout the experiments. At the beginning of each experiment, indomethacin-treated ring segments were depolarized with KCl (70 mM) to determine the maximal contractile capacity of the vessel. Rings were then washed extensively and allowed to equilibrate. For subsequent experiments, vessels were submaximally contracted (50% of KCl response) with phenylephrine (PE) (3×10^−8-10^−7 M).
Briefly, a rat aorta was excised and cleansed of fat and adhering tissue. Vessels were then cut into individual ring segments (2-3 mm in width) and suspended from a force-displacement transducer in a tissue bath. […] A passive load of 2 grams was applied to all ring segments and maintained at this level throughout the experiments. At the beginning of each experiment, indomethacin-treated ring segments were depolarized with KCl (70 mM) to determine the maximal contractile capacity of the vessel. Rings were then washed extensively and allowed to equilibrate. […]

[3] = NAL DPI formulation, monodose DPI device, in vitro; cited from earlier work

Molecule	pKa ([1]; exemplary buffers of Table 2)	further results
NC(=O)CN(CC(=O)O)CC(=O)O [ADA, N-(2-ametamino)iminodiacetic acid]	6.6	pKa ([1]; exemplary buffers of Table 1): 6.60
CC(C)(CO)NCC(O)CS(=O)(=O)O (centres unmarked) [AMPSO, N-(1,1-dimethyl-2-hydroxyethyl)-3-amino-2-hydroxypropane-sulfonic acid]	9.0	–
O=S(=O)(O)CCN(CCO)CCO [BES, N,N-Bis(2-hydroxyethyl)-2-aminoethanesulfonic acid]	7.1	–
OCC(CO)(CO)NCCCNC(CO)(CO)CO [BIS-TRIS Propane, 1,3-Bis[tris(hydroxymethyl)methylamino]propane]	6.8	–
O=S(=O)(O)CCNC1CCCCC1 [CHES, 2-(cyclohexylamino)ethanesulfonic acid]	9.3	–
O=S(=O)(O)CCCN1CCN(CCO)CC1 [EPPS, N-(2-hydroxyethyl)piperazine-N′-(3-propanesulfonic acid)]	8.0	–
O=S(=O)(O)CCN1CCN(CCS(=O)(=O)O)CC1 [PIPES, Piperazine-N,N′-bis(2-ethanesulfonic acid)]	6.8	pKa ([1]; exemplary buffers of Table 1): 6.76
CCCc1nn(C)c2c(=O)[nH]c(-c3cc(S(=O)(=O)N4CCN(C)CC4)ccc3OCC)nc12 [Sildenafil]	–	reduction in phenylepherine-induced aortic constriction ([2]; 50 nM sildenafil): ~50%; EC50 ([2]; relaxation of phenylephrine-contracted rat aortic rings, read-out: ED50 (the source's name)): 50 nM
O=S(=O)(O)CC(O)CNC(CO)(CO)CO (centres unmarked) [TAPSO, 2-hydroxy-3-[tris(hydroxymethyl)methylamino]-1-propanesulfonic acid]	7.6	–
O=C(O)CNC(CO)(CO)CO [Tricine]	8.1	–
L-lysine-N-acetylcysteinate [NAL]	–	fine particle fraction (FPF) of the nominal dose [3]: at least 30%
